From patent US20110159122A1, “COMBINATION OF EXTRACTS OF VARIOUS PLANTS FOR IMPROVING THE SYMPTOMS OF DEMENTIA DISORDERS” (Kneipp-Werke Kneipp-Mittel-Zentrale GmbH & Co,KG, priority 2008, published 2011)

Columns and labels:
[1] = system: central nervous system; test: tele-stereo EEG (electroencephalography) of rats after oral administration; format: in vivo; details: for effect of the compound according to formula I reached by known rooibos constituents: approximately equimolar quantities
Excerpt: In the context of the present invention, the pharmacological activity of the compound according to the invention of formula I was compared with the known constituents of the rooibos extract, such as aspalathin, catechin or (−)-epicatechin.
Since these drugs have a broad spectrum of side effects, the use of a rooibos extract with the compound according to formula I is advantageous as a drug because natural substances can usually be expected to have a lower rate of side effects. […] This is not generally commonplace for flavonoids.

[2] = system: monoamine oxidase; details: Plantextrakt, 2005; cited from earlier work
[3] = solubility during the preparation of the HPLC standard solutions; format: physicochemical; details: preparation of the standard solutions for HPLC

Which “effect of the compound according to formula I reached by known rooibos constituents” value (shortened to “effect of the compound according”) [1] does the source give for `Oc1cc(O)c2c(c1)O[C@H](c1ccc(O)c(O)c1)[C@H](O)C2` [(−)-epicatechin] here?
The value was “cannot be achieved with approximately equimolar quantities”.

For `O=c1c(O)c(-c2ccc(O)c(O)c2)oc2cc(O)cc(O)c12` [Quercetin], which “inhibition of the production of monoamine oxidase” value [2] is on record?
The value was “capable of inhibiting the production of monoamine oxidase”.

Which “effect of the compound according” value [1] does the source give for `O=C(CCc1ccc(O)c(O)c1)c1c(O)cc(O)c([C@@H]2O[C@H](CO)[C@@H](O)[C@H](O)[C@H]2O)c1O` [aspalathin] here?
The value was “cannot be achieved with approximately equimolar quantities”.

For `O=C(CCc1ccc(O)c(O)c1)c1c(O)c(C2OC(CO)C(O)C(O)C2O)c(O)c(C2c3c(O)cc(O)cc3OC(c3ccc(O)c(O)c3)C2O)c1O` (centres unmarked) [compound of formula I, aspacat], which “crossing of the blood-brain barrier” value ([1]; concluded from the in vivo EEG data) is on record?
The value was “evidently also crosses the blood-brain barrier”.

And the “discriminant analysis of the in vivo data” value ([1]; rat, in vivo)?
The value was “a relationship with the drugs for the treatment of dementias, Morbus Parkinson, depression and painful conditions”.

And the “pharmacological activity on the central nervous system in tele-stereo EEG” value ([1]; rats, oral administration)?
Its value is “marked pharmacological activity on the central nervous system”.

And the “changes in the EEG frequencies” value ([1]; rats, oral administration, as known for galantamine, tacrine, L-DOPA, nefopam)?
Its value is “dose-dependent changes in the EEG frequencies”.

And the “pharmacological activity compared with known constituents of the rooibos extract” value ([1]; versus aspalathin, catechin, (−)-epicatechin)?
The value was “higher pharmacological activity than these known constituents of the rooibos extract”.

For `O=c1cc(-c2ccc(O)c(O)c2)oc2c([C@@H]3O[C@H](CO)[C@@H](O)[C@H](O)[C@H]3O)c(O)cc(O)c12` [orientin, orientin(luteolin-8-C-glucoside)], which “solubility in standard solutions” value [3] is on record?
The value was “exhibited solubility problems”.

With `O=c1cc(-c2ccc(O)cc2)oc2c([C@@H]3O[C@H](CO)[C@@H](O)[C@H](O)[C@H]3O)c(O)cc(O)c12` [vitexin, vitexin(apigenin-8-C-glucoside)] as the compound, how does the “solubility in standard solutions” value [3] read?
The value was “exhibited solubility problems”.

Which “effect of the compound according” value [1] does the source give for catechin here?
The value was “cannot be achieved with approximately equimolar quantities”.
